# Columns and labels:
# A172 cells [1] = experiment: MTT cytotoxicity assay, A172; format: cell-based, human
# Protocol: (§1) Cell viability after treatments with selenylated imidazo[1,2-a]pyridines (IP-Se-01–IP-Se-10) was analyzed by quantitative colorimetric assay with MTT, according to Mosmann. IP-01, a prototype molecule without the addition of the selenium in its structure, was also tested. A172 and HT-22 cells were cultured in 96-well plates (10^4 cells/well). After confluence, cells were exposed to selenylated imidazo[1,2-a]pyridines (0.1, 1, 10, 100, and 1000 μM) for up to 72 h. After this phase, cell medium was removed and the cells were washed twice with PBS and incubated with MTT solution (0.5 mg/mL) for 2 h. The insoluble formazan was dissolved by adding DMSO (100 μL/well), and colorimetric determination of MTT reduction was measured at 550 nm in a multireader Infinite M200 Tecan. Three independent experiments were conducted, and the results are presented as IC50 (half maximal inhibitory concentration).
# HT-22 cells = experiment: MTT cytotoxicity assay, HT-22; format: cell-based, mouse; details: 72 h
# Protocol: as §1
# NRF2 = experiment: Western blotting NRF2, A172 cells; format: cell-based, human; details: 1 μM, vs control
# Protocol: (§2) After treatment with IP-Se-06 (1 μM) for 48 h, A172 cells were harvested with a lysis buffer. The lysates were collected, and the total proteins present in the lysates were quantified according to Lowry. Proteins present in the cell lysates (30 μg) were subjected to SDS-polyacrylamide gel electrophoresis, followed by electroblotting to polyvinylidene fluoride (PVDF) membranes. Nonspecific binding was blocked by incubating the membrane with skimmed milk in TBS buffer containing 0.1% Tween 20 (TBS-T) for 1 h. After primary antibody incubation, membranes were incubated with appropriate HRP-conjugated secondary antibodies for 1 h at room temperature. Immunodetection was performed using an enhanced chemiluminescence (ECL) detection kit. Protein bands were visualized using ChemiDoc MP Imaging System (Bio-Rad) and quantified by densitometry using the freeware ImageJ by Wayne Rasband from the National Institute of Health (USA).
# A172 cells [2] = experiment: Mitochondrial membrane potential (TMRE); format: cell-based, human; details: 1 μM, 6 h, vs control
# Protocol: The loss of mitochondrial transmembrane potential was analyzed using the fluorescent probe TMRE according to as proposed by O'Reilly and collaborators, with modifications. A172 cells (4 × 10^5/well) were plated in 12-well plates. After confluence, the cells were treated with IP-Se-06 (1 μM) for 6 h. After treatment, the cells were washed once with HBSS and incubated with TMRE (1 μM) at 37°C for 20 min. Lastly, the cells were washed with HBSS and the fluorescence intensity was measured at excitation peak of 549 nm and emission of 575 nm.
# A172 cells [3] = experiment: Assessment of cell death (acridine orange plus propidium iodide); format: cell-based, human; details: 1 μM, 72 h, vs nontreated
# Protocol: The cells were seeded (density of 2 × 10^5/well) into 6-well plates. After confluence, cells were treated with IP-Se-06 (1 μM) for 72 h. After this period, tumor cells were washed with PBS, trypsinized, centrifuged at 1500 g for 5 min, resuspended in PBS, and stained with a solution (6 μL, 1 : 1) of acridine orange (100 μg/mL) plus propidium iodide (100 μg/mL). This staining is used to analyze nuclear changes that characterize apoptotic and necrotic cells according to McGahon and collaborators. Cells (300/glass slide) from triplicates were observed under a fluorescence microscope (Olympus BX41) and categorized as viable, apoptotic, or necrotic.
# cytochrome c = experiment: Western blotting cytochrome c (cytosolic fraction), A172 cells; format: cell-based, human; details: 1 μM, vs control
# Protocol: as §2
# p-Akt = experiment: Western blotting p-Akt, A172 cells; format: cell-based, human; details: 1 μM, 48 h, vs control
# Protocol: as §2
# HIF-1α [4] = experiment: Western blotting HIF-1α, A172 cells; format: cell-based, human; details: 1 μM, 48 h, vs control
# Protocol: as §2
# HIF-1α [5] = experiment: Immunocytochemistry staining for HIF-1α localization; format: cell-based, human; details: 1 μM, 48 h
# Protocol: A172 cells were treated with IP-Se-06 (1 μM) for 48 h, fixed with paraformaldehyde (4%) for 15 min and washed three times with PBS. The cells were then treated with blocking solution (0.5% BSA in PBS containing 0.3% of triton X-100) for 1 h at room temperature and incubated with rabbit polyclonal primary antibody HIF-1α (Cat. sc-10790, dilution 1 : 500) overnight at 4°C. Following this, the cells were washed three times with PBS and incubated with secondary antibody polyclonal goat anti-rabbit IgG antibody (Cat. AP132P, dilution 1 : 1000) for 1 h. The cell nuclei were stained with DAPI (3 μg/mL). The cell images were acquired from ten randomly chosen fields for each condition using an Olympus IX83 fluorescent microscope.
# A172 cells [6] = experiment: Clonogenic assay; format: cell-based, human; details: 1 μM, 72 h
# Protocol: To analyze the ability of the organoselenium compound to prevent cell proliferation and the progression of tumorigenesis, the methodology proposed by Franken and collaborators was used. In total, 500 cells per well were seeded in 6-well plates for 24 h. Before treatment with IP-Se-06, two groups were treated with the mitogen-activated protein kinase/ERK kinase inhibitor U0126 (Cell Signaling Technology, USA, Cat. #9903) at 10 μM for 1 h. A172 cells were exposed to IP-Se-06 (1 μM), while untreated cells were maintained as a control. After 72 h of incubation, the cells were washed with PBS, and fresh growth medium DMEM-F12 was added. At 7 days after treatment, colonies were fixed with 10% ethanol, stained with 0.5% crystal violet stain solution, manually counted, and photographed. Finally, cells were discolored with 1 mL of acetic acid 10% for 10 min, and the absorbance was measured at 590 nm in a multireader (Infinite M200 TECAN).
# ERK 1/2 = experiment: Western blotting ERK 1/2, A172 cells; format: cell-based, human; details: 1 μM, 48 h
# Protocol: as §2
# p38 MAPK = experiment: Western blotting p38, A172 cells; format: cell-based, human; details: 1 μM, 48 h, vs control
# Protocol: as §2
# p-p38 = experiment: Western blotting p-p38, A172 cells; format: cell-based, human; details: 1 μM, 48 h, vs control
# Protocol: as §2
# NLRP3 = experiment: Western blotting NLRP3, A172 cells; format: cell-based, human; details: 1 μM, 48 h, vs control
# Protocol: as §2
# caspase-1 = experiment: Western blotting caspase-1, A172 cells; format: cell-based, human; details: 1 μM, 48 h, vs control
# Protocol: as §2
smiles,measurement,setting,value
"COc1ccccc1[Se]c1c(-c2ccccc2)nc2cc(C)ccn12 [IP-Se-06, 3-((2-methoxyphenyl)selanyl)-7-methyl-2-phenylimidazol[1,2-a]pyridine]",approximate IC25 value,"A172 cells [1]; A172, concentration used in further experiments",~1000 nM
same,IC50,"A172 cells [1]; Homo sapiens, A 172, 72 h, MTT",1800 nM
same,Selectivity Index (SI),A172 cells [1]; IC50 in normal cell line (HT-22)/IC50 in A172,36.5
same,cytotoxic activity on the mouse hippocampal cell line,HT-22 cells; in words,no significant cytotoxic activity
same,IC50,"HT-22 cells; Mus musculus, HT-22, MTT",65000 nM
same,levels of NRF2 protein,NRF2,decreased
same,"ΔΨm, TMRE fluorescence intensity",A172 cells [2],reduced
same,apoptosis (acridine orange plus propidium iodide),A172 cells [3],able to induce apoptosis
same,levels of cytochrome c,cytochrome c,increased
same,levels of p-Akt,p-Akt,significant reduction
same,HIF-1α levels,HIF-1α [4],significantly decreased
same,HIF-1α localization,HIF-1α [5],seemed not to be translocated to the nucleus
same,number of cells in the colonies (absorbance 590 nm),"A172 cells [6]; concomitantly with U0126 10 μM 1 h, vs treatments alone",even lower
same,number of cells in the colonies (absorbance 590 nm),A172 cells [6]; vs control,decreased
same,rate of colony formation,A172 cells [6]; vs nontreated,decreased
same,ERK 1/2 levels,"ERK 1/2; combination with U0126 10 μM 1 h, vs nontreated and U0126 alone",synergistic inhibition
same,ERK 1/2 levels,ERK 1/2; vs control,important reduction
same,levels of p38,p38 MAPK,significantly decreased
same,phosphorylation of p38 (p-p38),p-p38,significantly decreased
same,levels of NLRP3,NLRP3,decreased
same,levels of caspase-1,caspase-1,decreased
